Data set [1] deals with Puccinia triticina; synonym: Puccinia recondita f. sp. tritici (PUCCRT). As to the kind of experiment: Wheat brown rust (PUCCRT) whole-plant fungicidal test. It counts as in vivo. Conditions: topical; for pest or weed control at 121.5 g/ha: low volume (track spray) application, 121.5 g/H; for pest or weed control at 100 ppm: high volume application.
Data set [2] concerns Mycosphaerella graminicola; anamorph: Septoria tritici (SEPTTR). As to the kind of experiment: Leaf blotch of wheat (SEPTTR) whole-plant fungicidal test. It counts as in vivo. Conditions: Zymoseptoria tritici, topical; for pest or weed control at 121.5 g/ha: low volume (track spray) application, 121.5 g/H; for pest or weed control at 100 ppm: high volume application.
Where [3] appears, read: 24 h, 1 Day Protectant, read-out: Low Volume activity at 121.5 g/H PUCCRT 1DP (% disease control rating).
Setting [4] is: 72 h, 3 Day Curative, read-out: Low Volume activity at 121.5 g/H PUCCRT 3DC (% disease control rating).
Where [5] appears, read: 24 h, 1 Day Protectant, read-out: Low Volume activity at 121.5 g/H SEPTTR 1DP (% disease control rating).
Where [6] appears, read: 72 h, 3 Day Curative, read-out: Low Volume activity at 121.5 g/H SEPTTR 3DC (% disease control rating).
Setting [7] is: 24 h, 1 Day Protectant, read-out: High Volume activity at 100 ppm PUCCRT 1DP (% disease control rating).
[8] abbreviates: 72 h, 3 Day Curative, read-out: High Volume activity at 100 ppm PUCCRT 3DC (% disease control rating).
[9] abbreviates: 24 h, 1 Day Protectant, read-out: High Volume activity at 100 ppm SEPTTR 1DP (% disease control rating).
[10] abbreviates: 72 h, 3 Day Curative, read-out: High Volume activity at 100 ppm SEPTTR 3DC (% disease control rating).

28 compounds from patent publication US20150322051A1, “Macrocyclic picolinamides as fungicides” (Dow AgroSciences LLC, priority 2014, published 2015) can be followed below.

Like-named read-outs stand apart in the source and are kept apart here. A value given as a limit tells only on which side of the number the result lay.

Usually melting point stands for the temperature of the solid-liquid transition. The compound `CC(C)C[C@@H]1[C@@H](Cc2ccccc2)CCC[C@H](N)C(=O)O[C@H]1C.Cl` gave a melting point of 221 to 224 °C.
As to `C[C@@H]1OC(=O)[C@@H](N)CCC[C@H](CCCc2ccccc2)[C@H]1Cc1ccc(OC(F)(F)F)cc1.Cl`, the melting point lay in the range of 227 to 232 °C.
The same measure, in the same setting: the value for `C[C@@H]1OC(=O)[C@@H](N)CCC[C@H](Cc2ccc(C(F)(F)F)cc2)[C@H]1Cc1ccc(OC(F)(F)F)cc1.Cl` was 215 to 217 °C.
The same measure, in the same setting: the value for `C[C@@H]1OC(=O)[C@@H](N)CCC[C@H](Cc2ccccc2)[C@H]1Cc1ccc(OC(F)(F)F)cc1.Cl` was 196 to 198 °C.
For the compound `COc1ccnc(C(=O)N[C@H]2CCC[C@H](Cc3ccccc3)[C@@H](CC(C)C)[C@H](C)OC2=O)c1OCOC(C)=O` [Compound 14], the melting point fell in the range of 60 to 64 °C. The pest or weed control at 121.5 g/ha in data set [1] (setting [3]) was above 70%. In data set [1] (setting [4]), the pest or weed control at 121.5 g/ha was below 70%. For the same compound, the pest or weed control at 121.5 g/ha in data set [2] (setting [5]) is above 70%. Further, in data set [2] (setting [6]), the pest or weed control at 121.5 g/ha was above 70%.
Compound `COc1ccnc(C(=O)N[C@H]2CCC[C@H](Cc3ccc(Cl)cc3)[C@@H](Cc3ccccc3)[C@H](C)OC2=O)c1OCOC(C)=O` [Compound 19] registered a melting point of 98 to 100 °C. In addition, the pest or weed control at 121.5 g/ha in data set [1] (setting [3]) is above 70%. In data set [1] (setting [4]), the pest or weed control at 121.5 g/ha is below 70%. The pest or weed control at 121.5 g/ha in data set [2] (setting [5]) is above 70%. Also, the pest or weed control at 121.5 g/ha in data set [2] (setting [6]) was above 70%.
With `COc1ccnc(C(=O)N[C@H]2CCC[C@H](Cc3ccccc3)[C@@H](CC(C)C)[C@H](C)OC2=O)c1O` [Compound 77], the melting point lay within 73 to 76 °C.
Take `COc1ccnc(C(=O)N[C@H]2CCC[C@H](Cc3ccccc3)[C@@H](CCc3ccccc3)[C@H](C)OC2=O)c1O` [Compound 78]: the pest or weed control at 100 ppm in data set [1] (setting [7]) is above 70%; in data set [1] (setting [8]) it was below 70%; in data set [2] (setting [9]), above 70%; in data set [2] (setting [10]), above 70%.
With `COc1ccnc(C(=O)N[C@H]2CCC[C@H](Cc3ccc(Cl)cc3)[C@@H](Cc3ccccc3)[C@H](C)OC2=O)c1O` [Compound 79], the pest or weed control at 100 ppm in data set [1] (setting [7]) was above 70%; in data set [1] (setting [8]) it was below 70%; in data set [2] (setting [9]), above 70%; in data set [2] (setting [10]), below 70%.
For `COc1ccnc(C(=O)N[C@H]2CCC[C@H](Cc3ccc(C(F)(F)F)cc3)[C@@H](CC(C)C)[C@H](C)OC2=O)c1O` [Compound 80], the pest or weed control at 100 ppm is above 70% in data set [1] (setting [7]), below 70% in data set [1] (setting [8]), above 70% in data set [2] (setting [9]) and below 70% in data set [2] (setting [10]).
Regarding `COc1ccnc(C(=O)N[C@H]2CCC[C@H](Cc3ccc(C(F)(F)F)cc3)[C@@H](Cc3ccccc3)[C@H](C)OC2=O)c1O` [Compound 81], the pest or weed control at 100 ppm in data set [1] (setting [7]) is above 70%; in data set [1] (setting [8]), below 70%; in data set [2] (setting [9]) it was above 70%; in data set [2] (setting [10]) it was below 70%.
In the case of `CCC[C@H]1CCC[C@H](NC(=O)c2nccc(OC)c2O)C(=O)O[C@@H](C)[C@@H]1Cc1ccccc1` [Compound 82], the pest or weed control at 100 ppm in data set [1] (setting [7]) is above 70%; in data set [1] (setting [8]), above 70%; in data set [2] (setting [9]), below 70%; in data set [2] (setting [10]), above 70%.
Regarding `COc1ccnc(C(=O)N[C@H]2CCC[C@H](CCC(C)C)[C@@H](CCc3ccccc3)[C@H](C)OC2=O)c1O` [Compound 83], the pest or weed control at 100 ppm in data set [1] (setting [7]) is above 70%; in data set [1] (setting [8]), below 70%; in data set [2] (setting [9]) it was above 70%; in data set [2] (setting [10]), below 70%.
Turning to `COc1ccnc(C(=O)N[C@H]2CCC[C@H](Cc3ccc(Cl)cc3)[C@@H](C3CCCC3)[C@H](C)OC2=O)c1O` [Compound 84], the pest or weed control at 100 ppm in data set [1] (setting [7]) was above 70%; in data set [1] (setting [8]), below 70%; in data set [2] (setting [9]), above 70%; in data set [2] (setting [10]), above 70%.
With `COc1ccnc(C(=O)N[C@H]2CCC[C@H](CCCc3ccccc3)[C@@H](CCc3ccccc3)[C@H](C)OC2=O)c1O` [Compound 85], the pest or weed control at 100 ppm is above 70% in data set [1] (setting [7]), below 70% in data set [1] (setting [8]), above 70% in data set [2] (setting [9]) and below 70% in data set [2] (setting [10]).
`COc1ccnc(C(=O)N[C@H]2CCC[C@H](Cc3ccc(C(F)(F)F)cc3)[C@@H](Cc3ccc(F)cc3)[C@H](C)OC2=O)c1O` [Compound 86]: the pest or weed control at 100 ppm in data set [1] (setting [7]) was above 70%; in data set [1] (setting [8]) it was below 70%; in data set [2] (setting [9]), below 70%; in data set [2] (setting [10]), below 70%.
As to `COc1ccnc(C(=O)N[C@H]2CCC[C@H](CCC(C)C)[C@@H](C3CCCC3)[C@H](C)OC2=O)c1O` [Compound 87], the pest or weed control at 100 ppm in data set [1] (setting [7]) is above 70%; in data set [1] (setting [8]), below 70%; in data set [2] (setting [9]), above 70%; in data set [2] (setting [10]) it was below 70%.
On to `COc1ccnc(C(=O)N[C@H]2CCC[C@H](Cc3ccccc3)[C@@H](CCC(C)C)[C@H](C)OC2=O)c1O` [Compound 88], for which the pest or weed control at 100 ppm in data set [1] (setting [7]) was above 70%; in data set [1] (setting [8]), below 70%; in data set [2] (setting [9]) it was below 70%; in data set [2] (setting [10]) it was above 70%.
As for `COc1ccnc(C(=O)N[C@H]2CCC[C@H](Cc3ccccc3)[C@@H](c3ccccc3)[C@H](C)OC2=O)c1O` [Compound 90], the pest or weed control at 100 ppm in data set [1] (setting [7]), in data set [1] (setting [8]), in data set [2] (setting [9]) and in data set [2] (setting [10]) was above 70% throughout.
Regarding `CCC[C@H]1CCC[C@H](NC(=O)c2nccc(OC)c2O)C(=O)O[C@@H](C)[C@@H]1c1ccccc1` [Compound 91], the pest or weed control at 100 ppm in data set [1] (setting [7]) is above 70%; in data set [1] (setting [8]), below 70%; in data set [2] (setting [9]) it was above 70%; in data set [2] (setting [10]), above 70%.
For the compound `COc1ccnc(C(=O)N[C@H]2CCC[C@H](CCCc3ccccc3)[C@@H](CC(C)C)[C@H](C)OC2=O)c1O` [Compound 92], the pest or weed control at 100 ppm in data set [1] (setting [7]) was above 70%; in data set [1] (setting [8]) it was below 70%; in data set [2] (setting [9]), above 70%; in data set [2] (setting [10]) it was below 70%.
In the case of `COc1ccnc(C(=O)N[C@H]2CCC[C@H](CCCc3ccccc3)[C@@H](Cc3ccc(OC(F)(F)F)cc3)[C@H](C)OC2=O)c1O` [Compound 93], the melting point fell in the range of 49 to 53 °C. Moreover, in data set [1] (setting [7]), the pest or weed control at 100 ppm is below 70%. Moreover, the pest or weed control at 100 ppm in data set [1] (setting [8]) is below 70%. Moreover, the pest or weed control at 100 ppm in data set [2] (setting [9]) is below 70%. Besides, in data set [2] (setting [10]), the pest or weed control at 100 ppm is below 70%.
As to `COc1ccnc(C(=O)N[C@H]2CCC[C@H](CC3CC3)[C@@H](Cc3ccccc3)[C@H](C)OC2=O)c1O` [Compound 94], the pest or weed control at 121.5 g/ha in data set [1] (setting [3]) was above 70%; in data set [1] (setting [4]) it was below 70%; in data set [2] (setting [5]), above 70%; in data set [2] (setting [6]), above 70%.
`COc1ccnc(C(=O)N[C@H]2CCC[C@H](Cc3ccccc3)[C@@H](Cc3ccc(F)cc3)[C@H](C)OC2=O)c1O` [Compound 95]: the pest or weed control at 121.5 g/ha in data set [1] (setting [3]) is above 70%; in data set [1] (setting [4]), below 70%; in data set [2] (setting [5]) it was above 70%; in data set [2] (setting [6]), above 70%.
Turning to `COc1ccnc(C(=O)N[C@H]2CCC[C@H](Cc3ccc(C(F)(F)F)cc3)[C@@H](Cc3ccc(OC(F)(F)F)cc3)[C@H](C)OC2=O)c1O` [Compound 96], the pest or weed control at 100 ppm in data set [1] (setting [7]), in data set [1] (setting [8]), in data set [2] (setting [9]) and in data set [2] (setting [10]) was below 70% throughout.
Take `COc1ccnc(C(=O)N[C@H]2CCC[C@H](Cc3ccccc3)[C@@H](Cc3ccc(OC(F)(F)F)cc3)[C@H](C)OC2=O)c1O` [Compound 97]: the pest or weed control at 100 ppm in data set [1] (setting [7]) was above 70%; in data set [1] (setting [8]) it was below 70%; in data set [2] (setting [9]), above 70%; in data set [2] (setting [10]), below 70%.
On to `COc1ccnc(C(=O)N[C@H]2CCC[C@H](CCCc3ccccc3)[C@@H](Cc3ccccc3)[C@H](C)OC2=O)c1O` [Compound 98], for which the pest or weed control at 100 ppm is above 70% in data set [1] (setting [7]), below 70% in data set [1] (setting [8]), above 70% in data set [2] (setting [9]) and above 70% in data set [2] (setting [10]).
Take `C[C@@H]1OC(=O)[C@@H](NC(=O)OC(C)(C)C)CCC[C@H](Cc2ccc(C(F)(F)F)cc2)[C@H]1Cc1ccc(OC(F)(F)F)cc1` [Compound 152]: the melting point lay within 65 to 67 °C.
